In this assay the test system is MDA-MB-468 breast. Nature of the assay: NCI-60 cell line screen, 48 h.

Several values for one entry are separate records, joined by “and”; a condition that tells them apart may be missing. Equal values may be shown once.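 How tested: cells in 96-well plates exposed to compound for 48 hours at five concentrations. At the GI50, growth is halved. Definition used: TGI = concentration required for complete inhibition of growth.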 Some results are limits rather than exact numbers.

Take `COc1ccc(S(=O)(=O)Nc2cc(/C=C\c3cc(OC)c(OC)c(OC)c3)cc(OC)c2OC)cc1`: the GI50 is 42 nM and the TGI is over 100000 nM.
The matching figures for `O=C(N/N=C\c1c(O)ccc2ccccc12)C1CC1`: 3160 nM and 8680 nM.
The matching figures for `Cn1cc(C2=C(c3cn(CCSC(=N)N)c4ccccc34)C(=O)NC2=O)c2ccccc21`: 3190 nM and 7120 nM.
`CCCCCCNC(=O)Nc1ccc2cc3ccc(NC(=O)NCCCCCC)cc3nc2c1`: the GI50 was 1620 nM and the TGI was determined as 3730 nM.
Turning to `CN(C)c1ccc2nc3ccc(N)cc3[n+](-c3ccccc3)c2c1`, the GI50 is 179 nM and 1740 nM; the TGI is 1540 nM and 7280 nM.
As for `C[C@@H](O)[C@H]1C(=O)N2C(C(=O)O)=C(SCCN=CN)C[C@H]12`, the GI50 is 1100 nM and the TGI turned out to be 2730 nM.
As for `CCCCCCCCCCCC[n+]1c(C)cc(N)c2ccccc21`, the GI50 was 206 nM and the TGI was found to be 760 nM.
`Cn1cc(C2=C(c3cn(CCCO)c4ccccc34)C(=O)NC2=O)c2ccccc21`: the GI50 is 2250 nM and the TGI was found to be 18400 nM.
With `Cc1c2cnccc2c(C)c2c1c1cc(CO)ccc1n2C`, the GI50 was 151 nM and the TGI came out at 420 nM.
For `COc1ccc(/C=N/C2=C(C#N)C(c3ccccc3)c3c(ccc4ccccc34)O2)cc1` (stereo unspecified), the GI50 is 1080 nM and the TGI turned out to be 20500 nM.
For `Cc1nc2cc(-n3c(-c4ccc(F)cc4)nc4ccccc4c3=O)ccc2n1Cc1ccccc1`, the GI50 is 2000 nM and the TGI came out at 4950 nM.
With `Cc1ccc(-c2cc(C(=O)N3N=C(c4ccc(N)cc4)CC3c3ccc(Cl)cc3)c3ccccc3n2)cc1` (stereo unspecified), the GI50 was 4910 nM and the TGI is over 100000 nM.
Consider `Clc1ccc(/C=C2\CCCC3C2=Nc2ccccc2NC3c2ccc(Cl)cc2)cc1` (stereo unspecified), for which the GI50 is 1890 nM and the TGI stood at 4600 nM.
Taken in the same sequence, the figures for `CC(=O)c1cc2c(c(O)c1C)C(=O)C(=O)c1c(O)cccc1-2` were 198 nM and 495 nM.
Regarding `CC(Nc1c(C#N)cnc2ccc(-c3cnc(N)nc3)cc12)c1ccccc1` (stereo unspecified), the GI50 was 396 nM and the TGI was determined as 3340 nM.
On to `O=C(C[Si](CC(=O)c1cccc(C(F)(F)F)c1)CC(=O)c1cccc(C(F)(F)F)c1)c1cccc(C(F)(F)F)c1`, for which the GI50 is 2240 nM and the TGI was 6710 nM.
For `O[N+]1=CC=CCC1=S.On1ccccc1=S.[Zn]`, the GI50 was 584 nM and the TGI stood at 1600 nM.
For `COc1ccc2nc3cc(Cl)ccc3c(NCCCCCN3CCCCC3)c2c1`, the GI50 was 1210 nM and the TGI is 2580 nM.
Consider `NC(=O)c1cccc(N2Cc3ccccc3OC3=C2C(=O)c2c(O)ccc(O)c2C3=O)c1`, for which the GI50 was 195 nM and the TGI was determined as 425 nM.
The matching figures for `CCN(CC)c1ccc(/C=C2\SC(=O)C(Nc3nnc(-c4cccnc4SCc4ccccc4)o3)C2=O)cc1` (stereo unspecified): 3230 nM and 11800 nM.
For `COc1cccc(/C=N/Nc2ncnc3c2cnn3-c2cccc(OC)c2)c1`, the GI50 was over 25000 nM and the TGI is over 25000 nM.
`Cc1c(C(N)=O)sc2c1c(=O)n(Cc1ccccc1)c1nnc(SCC(=O)Nc3ccc(Cl)cc3)n21`: the GI50 is 2640 nM and the TGI was 6880 nM.
Take `O=C1c2ccccc2C(=O)c2c(N=Nc3[nH]c(=S)[nH]c3O)cccc21`: the GI50 was 440 nM and the TGI amounted to 9340 nM.
Taken in the same sequence, the figures for `COc1cccc2c1-c1ccccc1C2=O` were 346 nM and 21300 nM.
Consider `CN1CCN(c2ccc3nc(-c4c5cccccc-5[nH]c4=O)[nH]c3c2)CC1`, for which the GI50 is 15400 nM and the TGI stood at 34200 nM.
The matching figures for `FC(F)(F)c1cccc(Nc2nc3ccccc3nc2Nc2cccc(C(F)(F)F)c2)c1`: 1530 nM and 3560 nM.
Taken in the same sequence, the figures for `Cc1cc(Nc2cccc(F)c2)nc(NCc2ccccc2)n1` were 2170 nM and 7750 nM.
The matching figures for `CC(C)[C@]12O[C@H]1[C@@H]1O[C@]13[C@]1(O[C@H]1C[C@H]1C4=C(CC[C@@]13C)C(=O)OC4)[C@@H]2OC(=O)CN(C)C`: 18.3 nM and 52.4 nM.
On to `COC(=O)[C@@H](C[C@H](Cc1ccccc1)NC(=O)c1csc([C@@H](C[C@H](C(C)C)N(C)C(=O)[C@@H](NC(=O)[C@H]2CCCCN2C)C(C)C)OC(C)=O)n1)NC(=O)OCc1ccccc1`, for which the GI50 is under 0.833 nM and the TGI is under 0.833 nM.
`Nc1nc(N)c2cc(CNc3ccc(C(=O)NC(CC(=O)O)C(=O)O)cc3)ccc2n1` (stereo unspecified): the GI50 is 941 nM.
On to `CO[C@H](C(=O)[C@@H](O)[C@@H](C)O)[C@@H]1Cc2cc3cc(O[C@H]4C[C@@H](O[C@H]5C[C@@H](O)[C@H](O)C(C)O5)[C@H](O)C(C)(O)O4)cc(O)c3c(O)c2C(=O)[C@H]1O[C@H]1C[C@@H](O[C@H]2C[C@@H](O[C@H]3C[C@@H](OC)[C@H](O)C(C)O3)[C@@H](O)C(C)O2)[C@H](O)C(C)O1` (stereo partly specified), for which the GI50 was 2930 nM and the TGI was over 16800 nM.
The matching figures for `C1CN1c1nc(N2CC2)nc(N2CC2)n1`: 4830 nM and 19200 nM.
The matching figures for `O=C(Nc1cccc(-c2cccc(F)c2)c1)C1CCN(Cc2cccc3cccnc23)CC1`: 1760 nM and 3460 nM.
Taken in the same sequence, the figures for `COc1ccc(/C=C/C(=O)c2cccc(B(O)O)c2)cc1O` were 2860 nM and 21000 nM.
For the molecule `CC(=O)OC[C@]1(C)C=C2C(=O)[C@](C)(O)C3(CC3)C(C)=C2[C@H]1OC(=O)N(C)CCN(C)C(=O)OC(C)(C)C`, the GI50 was 519 nM and the TGI came out at 1200 nM.
As to `O=C(O)CCCn1c(SCc2c(Cl)cccc2Cl)nc2ccsc2c1=O`, the GI50 was 240 nM and the TGI is over 100000 nM.
For the molecule `COC(=O)C(N)CSC(c1ccccc1)(c1ccccc1)c1ccccc1` (stereo unspecified), the GI50 was 336 nM and the TGI came out at 2740 nM.
As for `O=C1OCC2=C1C(c1cccc(Cl)c1)c1cc3c(cc1N2CCO)OCO3` (stereo unspecified), the GI50 is 246 nM.
Turning to `CN([O-])c1nc(N(C)[O-])nc(N2CCOCC2)n1.CN([O-])c1nc(N(C)[OH2+])nc(N2CCOCC2)n1.[Fe+3]`, the GI50 is 45400 nM and the TGI was over 100000 nM.
